Measured values as given in PMC6934184, “Selective DNA-PKcs inhibition extends the therapeutic index of localized radiotherapy and chemotherapy” (The Journal of Clinical Investigation, 2019).

Target: T1, PAK4 (Homo sapiens, UniProt O96013)
T1 construct: purchased Thermo Fisher Scientific (Life Technologies) SelectScreen
Assay: SelectScreen Z'LYTE
Assay type: biochemical
Outline: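 SelectScreen broad panel; activity (Z'LYTE, Adapta) plus binding formats. ATP: Km app for CSF1R Z'LYTE; 10 for CAMK1 Adapta. Readout = % per kinase.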

T1 sequence (O96013 whole entry): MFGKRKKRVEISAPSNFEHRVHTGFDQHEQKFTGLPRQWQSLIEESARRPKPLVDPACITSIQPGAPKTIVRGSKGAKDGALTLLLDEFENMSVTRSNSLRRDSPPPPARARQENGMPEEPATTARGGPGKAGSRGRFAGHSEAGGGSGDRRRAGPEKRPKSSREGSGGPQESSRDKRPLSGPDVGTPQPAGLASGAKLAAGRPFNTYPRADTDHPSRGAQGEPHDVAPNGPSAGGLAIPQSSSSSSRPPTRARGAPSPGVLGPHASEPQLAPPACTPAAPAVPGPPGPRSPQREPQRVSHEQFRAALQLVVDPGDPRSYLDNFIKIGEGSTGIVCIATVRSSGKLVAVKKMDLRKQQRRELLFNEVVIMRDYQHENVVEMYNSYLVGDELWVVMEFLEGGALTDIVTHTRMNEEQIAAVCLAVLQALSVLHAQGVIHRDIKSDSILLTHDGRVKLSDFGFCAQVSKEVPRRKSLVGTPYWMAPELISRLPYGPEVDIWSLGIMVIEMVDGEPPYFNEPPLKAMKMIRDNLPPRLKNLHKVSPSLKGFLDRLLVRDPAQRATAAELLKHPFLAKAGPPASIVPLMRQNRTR

With `CN(C(=O)CN1CCOCC1)c1ccc2sc3c(-c4cccc5c(=O)cc(N6CC7CCC(C6)O7)oc45)cccc3c2c1` [NU5455] the inhibition at 1 µM was -3.3%.
